Measured values: patent US20080182893A1, “Anti-Atherogenic Composition” (SAN-EI GEN F.F.I., INC., priority 2005, published 2008)

Tested on: ApoE-KO mice
Experiment: Test Example 2: influence of EMIQ and QC on atherosclerosis, thoracic-abdominal aortic lesion area
Assay type: in vivo
Details: low dose 33 μmol/kg in feed, 14 weeks, versus control group (G1), FIG. 2
Procedure: The EMIQ prepared in Preparation Example 2 and the QC prepared in Preparation Example 3 were orally administered for 14 weeks to ApoE-KO mice in order to elucidate the atherosclerosis progression inhibiting effect of these substances. The atherosclerosis progression inhibiting effect was evaluated based on the atherosclerotic lesion area rate (%) at the thoracic-abdominal aorta of the ApoE-KO mice.
Specifically, before the test the test animals (ApoE-KO mice) were housed for 11 days for environmental acclimation and were then assigned, taking into consideration the body weight and total serum cholesterol (T-cho value), into the following four groups (8 animals in each group) in a completely randomized design using a group assignment system (Statlight #11 Group Assignment, Yukms Co., Ltd., Tokyo): the control group (a group not receiving either substance, G1), a group receiving quercetin admixed in the feed at 33 μmol/kg (low-dose QC group, G2), a group receiving EMIQ admixed in the feed at 33 μmol/kg (low-dose EMIQ group, G3), and a group receiving EMIQ admixed in the feed at 330 μmol/kg (high-dose EMIQ group, G4). […]

Compound: O=c1c(O)c(-c2ccc(O)c(O)c2)oc2cc(O)cc(O)c12 [QC, quercetin]
- thoracic-abdominal aortic atherosclerotic lesion area rate (%): no difference
